From article PMC11252453 (Acta Pharmaceutica Sinica. B, 2024) come the findings set out here.

The structures appear in SMILES notation.

The subject of one data set is Vero E6 cells. The note with it: African green monkey.
Data set [1] relates to SARS-CoV-2 PLpro mediated IFNB expression. The class given is cell-based.
The target in the next data set is SARS-CoV-2 PLpro (Severe acute respiratory syndrome coronavirus 2, UniProt P0DTD1). The experiment in a line: cell-based.

As for `CCC(C(=O)Nc1cc(NC2CCNCC2)ccc1C)n1cc(Cl)cc2nc(SCc3ccc(F)cc3)nc1-2` (stereo not shown) [Compound 39], in the data set on Vero E6 cells, the CC50 (as a rule, the concentration at which the toxic effect on the cells reaches its halfway point) is over 50 µM. Further, the “IFNB mRNA expression” value in data set [1] is recorded as “fully restore IFNB expression”. `CCC(C(=O)Nc1cc(NC2CCNCC2)ccc1C)n1cc(Br)cc2nc(SCc3ccc(F)cc3)nc1-2` (stereo not shown) [Compound 44]: at SARS-CoV-2 PLpro, the midpoint of the response, the EC50, lay at 3.81 ± 0.59 µM. With `CCC(C(=O)Nc1cc(NC2COC2)ccc1C)n1cc(Br)cc2nc(SCc3ccc(F)cc3)nc1-2` (stereo not shown) [Compound 45], the “IFNB mRNA expression” value in data set [1] is “fully restore IFNB expression”.
